From US20240180841A1, “ENTERIC TABLET CONTAINING DIMETHYL FUMARATE” (CURACLE CO., LTD., priority 2019, published 2024)
Where a name gives a salt, the structure may show the parent alone.

Assay: Weight loss rate at 60° C. for 2 weeks (sublimation)
Assay type: physicochemical
Conditions: drying and sublimation
Protocol: Dimethyl fumarate has a property of being lost by sublimation depending on the storage temperature. Accordingly, in order to confirm the degree of weight loss according to the coating drying temperature, the degree of weight loss was repeatedly evaluated for 2 weeks at a temperature of 60° C. for dimethyl fumarate and a mixture thereof. At this time, the mixture of dimethyl fumarate was a mixture in which dimethyl fumarate and other pharmaceutically acceptable additives were mixed.

- Weight loss in words: continued to lose weight
Compound: COC(=O)/C=C/C(=O)OC [dimethyl fumarate, Dimethyl fumarate]
